Inhibition and IC50 data for 28 compounds are collected here from patent publication US20230390247A1, “BIPHENYL PYRROLIDINE AND BIPHENYL DIHYDROIMIDAZOLE DERIVATIVES FOR INHIBITING ACTIVITY OF 5-HT7 SEROTONIN RECEPTOR, AND PHARMACEUTICAL COMPOSITION COMPRISING SAME AS ACTIVE INGREDIENT” (priority 2020, published 2023).

Test [1] concerns the target T1, 5-HT7R (Homo sapiens (Human), UniProt P34969). Kind of test: cAMP assay (luminescence-based, GloSensor). The class given is cell-based. To be noted: HEK293 cells transfected with human 5-HT7R and GloSensor-22F. Here is the method: For luminescence-based cAMP assay, HEK293 cells were cultured on a 150-mm dish. Prior to transfection, the culture medium was replaced from DMEM containing 10% FBS, 100 U/mL penicillin and 100 μg/mL streptomycin to DMEM containing 10% dialyzed FBS, 100 U/mL penicillin and 100 μg/mL streptomycin. 4 hours later, transfection was conducted using 10 μg of a human 5-HT7R plasmid and 10 μg of a GloSensor-22F plasmid (Promega). The transfected cells were prepared on a white, flat, clear-bottom, 384-well plate (Greiner) (15,000 cells/well, 20 μL/well). 6 hours later, after removing the culture medium, the cells were treated with 20 μL of a 3% Glosensor cAMP reagent containing luciferin in a 1×HBSS, […], pH 7.4 buffer. In addition, the compound of each of the examples was prepared at different concentrations in an assay buffer containing 0.1% bovine serum albumin. 30 minutes later, 10 μL of the compound solution was treated to the cells. After measuring luminescence using a Tecan microplate reader (Spark), IC50 value was obtained using the Prism 8.0 program (GraphPad Software).
Background: Changes in cAMP serve as a functional read-out for many G protein-coupled receptors.

For test [2], the target named is T1, 5-HT7R. Nature of the test: Tango assay (β-arrestin signaling system). The test is classed as cell-based. Particulars: HTLA cells transfected with 5-HT7R-TCS-tTA construct. Here is the method:
Tango assay was conducted using HTLA cells in order to investigate the activity of the β-arrestin signaling system. Prior to transfection, the culture medium was replaced from DMEM containing 10% FBS, 100 U/mL penicillin, 100 μg/mL streptomycin, 2 μg/mL puromycin and 100 μg/mL hygromycin B to DMEM containing 10% dialyzed FBS, 100 U/mL penicillin and 100 μg/mL streptomycin. 4 hours later, transfection was conducted using 20 μg of a 5-HT7R-TCS-tTA construct (5-HT7R Tango DNA). The transfected cells were prepared on a white, flat, clear-bottom, 384-well plate (Greiner) (15,000 cells/well, 20 μL/well) using DMEM containing 10% dialyzed FBS, 100 U/mL penicillin and 100 μg/mL streptomycin. 6 hours later, after removing the culture medium, the cells were treated with 10 μL of the compound solution. After culturing for 22 hours and removing the culture medium, the cells were treated with 20 μL of a BrightGlo reagent (Promega) diluted in a 1×HBSS, […], pH 7.4 buffer. After measuring luminescence using a Tecan microplate reader (Spark), IC50 value was obtained using the Prism 8.0 program (GraphPad Software).

What is called inhibition is the share of the control response that was lost under treatment. Low readings indicate a response near the control, high ones a response far below the control. Usually IC50 stands for the point on the concentration scale where inhibition reaches its midpoint. Read a low IC50 as greater potency.

T1 sequence (P34969 whole entry): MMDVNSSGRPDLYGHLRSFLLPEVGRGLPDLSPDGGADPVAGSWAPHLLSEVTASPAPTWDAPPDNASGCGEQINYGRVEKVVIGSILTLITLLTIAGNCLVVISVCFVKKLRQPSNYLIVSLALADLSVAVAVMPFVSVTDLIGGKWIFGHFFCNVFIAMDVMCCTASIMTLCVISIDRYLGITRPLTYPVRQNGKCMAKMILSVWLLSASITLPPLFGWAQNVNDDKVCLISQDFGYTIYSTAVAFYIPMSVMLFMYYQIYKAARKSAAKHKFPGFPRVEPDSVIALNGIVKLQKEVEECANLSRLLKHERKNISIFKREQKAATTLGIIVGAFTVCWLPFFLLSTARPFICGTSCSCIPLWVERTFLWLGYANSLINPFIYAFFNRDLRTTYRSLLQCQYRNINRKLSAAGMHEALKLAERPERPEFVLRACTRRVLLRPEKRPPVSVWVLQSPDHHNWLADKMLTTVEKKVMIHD

For the compound `Cc1ccccc1-c1cc(CN2CCCC2)ccc1Cl` [Compound 16, 1-((6-chloro-2′-methyl-[1,1′-biphenyl]-3-yl)methyl)pyrrolidine], the inhibition at 10 µM in test [1] turned out to be 73.3%; in test [2], 30.9%. The midpoint of inhibition in test [1], the IC50, lay at 6.42 µM.

In the case of `COc1ccc(-c2cccc(CN3CCCC3)c2)cc1` [Compound 10, 1-((4′-methoxy-[1,1′-biphenyl]-3-yl)methyl)pyrrolidine], the inhibition at 10 µM in test [1] is 37.9%; in test [2], 23.1%.

In turn, `Clc1cccc(-c2cccc(C3=NCCN3)c2)c1` [Compound 25, 2-(3′-chloro-[1,1′-biphenyl]-3-yl)-4,5-dihydro-1H-imidazole] returned an inhibition at 10 µM in test [1] of 50.9%. Besides, in test [2], the inhibition at 10 µM amounted to 43.6% and 10.5 µM corresponded to half-maximal inhibition (IC50).

With `Clc1ccc(CN2CCCC2)cc1-c1ccccc1` [Compound 12, 1-((6-chloro-[1,1′-biphenyl]-3-yl)methyl)pyrrolidine], the inhibition at 10 µM in test [1] is 80.8%; in test [2], 26.1%. For the same compound, the IC50 in test [1] was 4.89 µM.

For the compound `COc1ccccc1-c1c(Cl)ccc(CN2CCCC2)c1OC` [Compound 22, 1-((6-chloro-2,6′-dimethoxy-[1,1′-biphenyl]-3-yl)methyl)pyrrolidine], the inhibition at 10 µM was determined as 42.7% in test [1] and 3.3% in test [2].

With `Cc1ccccc1-c1cc(C2=NCCN2)ccc1Cl` [Compound 38, 2-(6-chloro-2′-methyl-[1,1′-biphenyl]-3-yl)-4,5-dihydro-1H-imidazole], the inhibition at 10 µM in test [1] is 51.4%; in test [2], 31.7%.

Turning to `Clc1ccc(-c2cccc(CN3CCCC3)c2)cc1` [Compound 4, 1-((4′-chloro-[1,1′-biphenyl]-3-yl)methyl)pyrrolidine], the figures for the inhibition at 10 µM in test [1] and in test [2] were 38.1% and 14.1%, respectively.

For the compound `COc1cccc(OC)c1-c1cc(C2=NCCN2)ccc1Cl` [Compound 44, 2-(6-chloro-2′,6′-dimethoxy-[1,1′-biphenyl]-3-yl)-4,5-dihydro-1H-imidazole], the inhibition at 10 µM was determined as 48.4% in test [1] and 9.8% in test [2].

In test [1], `COc1cccc(-c2cccc(CN3CCCC3)c2)c1` [Compound 9, 1-((3′-methoxy-[1,1′-biphenyl]-3-yl)methyl)pyrrolidine] yielded an inhibition at 10 µM of 67.2% and an IC50 of 6.44 µM. The inhibition at 10 µM in test [2] was 16.7%.

Consider `Cc1cccc(-c2cc(CN3CCCC3)ccc2Cl)c1` [Compound 17, 1-((6-chloro-3′methyl-[1,1′-biphenyl]-3-yl)methyl)pyrrolidine], for which the inhibition at 10 µM in test [1] was 51.8%; in test [2], 11.4%.

As for `COc1cccc(-c2cc(C3=NCCN3)ccc2Cl)c1` [Compound 42, 2-(6-chloro-3′-methoxy-[1,1′-biphenyl]-3-yl)-4,5-dihydro-1H-imidazole], the inhibition at 10 µM came to 49.8% in test [1] and 23.4% in test [2].

Consider `COc1ccccc1-c1cccc(CN2CCCC2)c1` [Compound 8, 1-((2′-methoxy-[1,1′-biphenyl]-3-yl)methyl)pyrrolidine], for which the results for the inhibition at 10 µM in test [1] and in test [2] were 57.1% and 18%, respectively.

On to `Clc1ccc(-c2cc(C3=NCCN3)ccc2Cl)cc1` [Compound 37, 2-(4′,6-dichloro-[1,1′-biphenyl]-3-yl)-4,5-dihydro-1H-imidazole], for which the inhibition at 10 µM in test [1] worked out at 43.3%; in test [2], 39.6%.

Regarding `COc1ccccc1-c1cc(CN2CCCC2)ccc1Cl` [Compound 19, 1-((6-chloro-2′-methoxy-[1,1′-biphenyl]-3-yl)methyl)pyrrolidine], the inhibition at 10 µM in test [1] amounted to 51.8%; in test [2], 19.7%.

Turning to `COc1ccc(-c2cccc(C3=NCCN3)c2)cc1` [Compound 32, 2-(4′-methoxy-[1,1′-biphenyl]-3-yl)-4,5-dihydro-1H-imidazole], the inhibition at 10 µM worked out at 40.8% in test [1] and 11.9% in test [2].

For the compound `Cc1ccc(-c2cc(CN3CCCC3)ccc2Cl)cc1` [Compound 18, 1-((6-chloro-4′methyl-[1,1′-biphenyl]-3-yl)methyl)pyrrolidine], in test [1], the inhibition at 10 µM was 73.4% and the IC50 was determined as 8.2 µM. In addition, 10 µM produced 21.5% inhibition in test [2].

Take `Cc1ccccc1-c1cccc(CN2CCCC2)c1` [Compound 5, 1-((2′-methyl-[1,1′-biphenyl]-3-yl)methyl)pyrrolidine]: the inhibition at 10 µM in test [1] stood at 49.5%; in test [2], 25%.

In the case of `Clc1ccc(C2=NCCN2)cc1-c1ccccc1` [Compound 34, 2-(6-chloro-[1,1′-biphenyl]-3-yl)-4,5-dihydro-1H-imidazole], the figures for the inhibition at 10 µM in test [1] and in test [2] were 48.4% and 31.6%, respectively.

In the case of `Clc1ccc(-c2cccc(C3=NCCN3)c2)cc1` [Compound 26, 2-(4′-chloro-[1,1′-biphenyl]-3-yl)-4,5-dihydro-1H-imidazole], the inhibition at 10 µM in test [1] came to 43%; in test [2] it was 23.1%.

Take `COc1cccc(-c2cc(CN3CCCC3)ccc2Cl)c1` [Compound 20, 1-((6-chloro-3′methoxy-[1,1′-biphenyl]-3-yl)methyl)pyrrolidine]: the results for the inhibition at 10 µM in test [1] and in test [2] were 70.1% and 26%, respectively. The IC50 in test [1] worked out at 7.48 µM.

`Cc1cccc(-c2cccc(CN3CCCC3)c2)c1` [Compound 6, 1-((3′-methyl-[1,1′-biphenyl]-3-yl)methyl)pyrrolidine]: the inhibition at 10 µM in test [1] amounted to 38.9%; in test [2] it was 22%.

With `Cc1ccccc1-c1cccc(C2=NCCN2)c1` [Compound 27, 2-(2′-methyl-[1,1′-biphenyl]-3-yl)-4,5-dihydro-1H-imidazole], the inhibition at 10 µM in test [1] is 55.3%; in test [2] it was 23%.

Turning to `Cc1cccc(-c2cccc(C3=NCCN3)c2)c1` [Compound 28, 2-(3′-methyl-[1,1′-biphenyl]-3-yl)-4,5-dihydro-1H-imidazole], the inhibition at 10 µM amounted to 44.6% in test [1] and 28.8% in test [2].

Take `Clc1ccccc1-c1cc(CN2CCCC2)ccc1Cl` [Compound 13, 1-((2′,6-dichloro-[1,1′-biphenyl]-3-yl)methyl)pyrrolidine]: in test [1], the inhibition at 10 µM was 90.7% and the IC50 was 3.2 µM. In test [2], this compound came in with an inhibition at 10 µM of 50.5%.

For `Clc1ccccc1-c1cccc(C2=NCCN2)c1` [Compound 24, 2-(2′-chloro-[1,1′-biphenyl]-3-yl)-4,5-dihydro-1H-imidazole], the results for the inhibition at 10 µM in test [1] and in test [2] were 47.6% and 36%, respectively.

For the compound `Clc1cccc(-c2cc(CN3CCCC3)ccc2Cl)c1` [Compound 14, 1-((3′,6-dichloro-[1,1′-biphenyl]-3-yl)methyl)pyrrolidine], the inhibition at 10 µM in test [1] was found to be 51.1%; in test [2], 27.9%.

For the compound `Clc1cccc(-c2cccc(CN3CCCC3)c2)c1` [Compound 3, 1-((3′-chloro-[1,1′-biphenyl]-3-yl)methyl)pyrrolidine], in test [1], the inhibition at 10 µM worked out at 85.9% and the IC50 was determined as 4.88 µM. Further, the inhibition at 10 µM in test [2] is 33.2%.

In the case of `COc1cccc(OC)c1-c1cccc(CN2CCCC2)c1` [Compound 11, 1-((2′,6′-dimethoxy-[1,1′-biphenyl]-3-yl)methyl)pyrrolidine], the figures for the inhibition at 10 µM in test [1] and in test [2] were 32.8% and 5.1%, respectively.
